Values of other authors as cited in patent US6197304A, “Whitening cosmetics containing solvent-fractionated extracts of ramulus mori extract” (priority 1997, dated 2001).
“Also recorded” adds a separate entry of the source.

How the values were obtained:
tyrosinase = details: prior art
skin = details: prior art

| SMILES | tyrosinase inhibition / whitening activity (in words) (tyrosinase) | skin irritation (in words) (skin) |
| --- | --- | --- |
| O=C1O[C@H]([C@@H](O)CO)C(O)=C1O [Ascorbic acid, ascorbic acid] | relatively low activity of inhibiting tyrosinase |  |
| O=c1cc(CO)occ1O [Comparative 3, kojic acid] | high activity; also recorded: relatively high whitening effect |  |
| Oc1ccc(O)cc1 [Hydroquinone, hydroquinone] |  | irritates the skin strongly |
